# Assay results from ChEMBL document CHEMBL5678816, “A Next-Generation TRK Kinase Inhibitor Overcomes Acquired Resistance to Prior TRK Kinase Inhibition in Patients with TRK Fusion-Positive Solid Tumors” (Cancer Discov, 2017).
# Active and inactive are the calls of the source. The rule behind the calls is not given here.
# Legend:
# [1] = target: Fibroblast growth factor receptor 2 (Homo sapiens) (UniProt P21802); assay: Inhibition of FGFR2 (unknown origin) at 1 uM in presence of ATP relative to control; values are per cent of control
# Sequence of Fibroblast growth factor receptor 2 (Homo sapiens) (P21802 22-821 limits assumed): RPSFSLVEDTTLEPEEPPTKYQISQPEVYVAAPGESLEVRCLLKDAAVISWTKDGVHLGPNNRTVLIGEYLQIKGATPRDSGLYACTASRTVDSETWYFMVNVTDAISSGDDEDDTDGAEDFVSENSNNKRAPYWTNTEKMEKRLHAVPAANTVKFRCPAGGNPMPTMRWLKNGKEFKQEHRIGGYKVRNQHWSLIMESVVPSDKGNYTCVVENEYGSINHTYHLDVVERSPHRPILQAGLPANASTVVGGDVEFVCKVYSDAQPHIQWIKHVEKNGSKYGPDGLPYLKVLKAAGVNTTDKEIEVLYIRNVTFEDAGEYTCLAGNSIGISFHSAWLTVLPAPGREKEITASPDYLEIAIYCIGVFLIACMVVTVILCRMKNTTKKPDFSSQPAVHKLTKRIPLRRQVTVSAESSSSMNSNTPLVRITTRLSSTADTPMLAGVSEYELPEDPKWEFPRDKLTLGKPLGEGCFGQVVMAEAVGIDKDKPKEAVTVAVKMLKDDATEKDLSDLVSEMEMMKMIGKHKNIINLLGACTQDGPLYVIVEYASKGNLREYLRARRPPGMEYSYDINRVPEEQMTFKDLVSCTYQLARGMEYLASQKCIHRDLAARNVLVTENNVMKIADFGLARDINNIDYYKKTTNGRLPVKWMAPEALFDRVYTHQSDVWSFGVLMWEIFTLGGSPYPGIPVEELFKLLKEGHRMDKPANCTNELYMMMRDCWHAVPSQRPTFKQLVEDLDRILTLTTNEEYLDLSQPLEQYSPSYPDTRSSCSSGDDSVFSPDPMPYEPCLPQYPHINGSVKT
# [2] = Cmin in pediatric patient with recurrent ETV6-NTRK3-rearranged infantile fibrosarcoma at 60 mg administered twice a day as liquid formulation for 8 day and measured 12 hrs post dose by LC-MS/MS analysis; type: ADME; settings: human, in vivo, read-out: Cmin
# [3] = target: [Pyruvate dehydrogenase (acetyl-transferring)] kinase isozyme 1, mitochondrial (Homo sapiens) (UniProt Q15118); assay: Inhibition of PDK1 (unknown origin) at 1 uM in presence of ATP relative to control; values are per cent of control
# [4] = target: Tyrosine-protein kinase JAK3 (Homo sapiens) (UniProt P52333); assay: Inhibition of JAK3 (unknown origin) at 1 uM in presence of ATP relative to control; values are per cent of control
# NCI-H292 = assay: Inhibition of cell proliferation in human NCI-H292 cells upto 10 umol/L incubated for 72 hrs by DAPI staining based analysis; type: functional; settings: dose <= 10.0 µmol/L
# [5] = target: Serine/threonine-protein kinase ULK3 (Homo sapiens) (UniProt Q6PHR2); assay: Inhibition of ULK3 (unknown origin) at 1 uM in presence of ATP relative to control; values are per cent of control
# Sequence of Serine/threonine-protein kinase ULK3 (Homo sapiens) (Q6PHR2 whole entry): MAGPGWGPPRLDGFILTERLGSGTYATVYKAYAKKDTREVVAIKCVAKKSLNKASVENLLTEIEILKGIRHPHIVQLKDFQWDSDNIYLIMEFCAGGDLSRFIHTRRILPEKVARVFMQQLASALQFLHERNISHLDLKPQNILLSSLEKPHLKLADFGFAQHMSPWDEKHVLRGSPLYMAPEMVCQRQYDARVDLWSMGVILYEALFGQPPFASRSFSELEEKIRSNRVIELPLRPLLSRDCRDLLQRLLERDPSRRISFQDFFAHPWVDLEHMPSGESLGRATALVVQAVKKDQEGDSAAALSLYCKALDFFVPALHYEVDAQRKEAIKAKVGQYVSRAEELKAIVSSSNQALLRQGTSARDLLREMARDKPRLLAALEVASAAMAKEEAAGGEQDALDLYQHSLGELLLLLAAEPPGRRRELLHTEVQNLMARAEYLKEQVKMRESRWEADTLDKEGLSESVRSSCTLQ
# [6] = target: Interleukin-1 receptor-associated kinase 1 (Homo sapiens) (UniProt P51617); assay: Inhibition of IRAK1 (unknown origin) at 1 uM in presence of ATP relative to control; values are per cent of control
# [7] = target: Serine/threonine-protein kinase SIK1 (Homo sapiens) (UniProt P57059); assay: Inhibition of SIK (unknown origin) at 1 uM in presence of ATP relative to control; values are per cent of control
# Sequence of Serine/threonine-protein kinase SIK1 (Homo sapiens) (P57059 whole entry): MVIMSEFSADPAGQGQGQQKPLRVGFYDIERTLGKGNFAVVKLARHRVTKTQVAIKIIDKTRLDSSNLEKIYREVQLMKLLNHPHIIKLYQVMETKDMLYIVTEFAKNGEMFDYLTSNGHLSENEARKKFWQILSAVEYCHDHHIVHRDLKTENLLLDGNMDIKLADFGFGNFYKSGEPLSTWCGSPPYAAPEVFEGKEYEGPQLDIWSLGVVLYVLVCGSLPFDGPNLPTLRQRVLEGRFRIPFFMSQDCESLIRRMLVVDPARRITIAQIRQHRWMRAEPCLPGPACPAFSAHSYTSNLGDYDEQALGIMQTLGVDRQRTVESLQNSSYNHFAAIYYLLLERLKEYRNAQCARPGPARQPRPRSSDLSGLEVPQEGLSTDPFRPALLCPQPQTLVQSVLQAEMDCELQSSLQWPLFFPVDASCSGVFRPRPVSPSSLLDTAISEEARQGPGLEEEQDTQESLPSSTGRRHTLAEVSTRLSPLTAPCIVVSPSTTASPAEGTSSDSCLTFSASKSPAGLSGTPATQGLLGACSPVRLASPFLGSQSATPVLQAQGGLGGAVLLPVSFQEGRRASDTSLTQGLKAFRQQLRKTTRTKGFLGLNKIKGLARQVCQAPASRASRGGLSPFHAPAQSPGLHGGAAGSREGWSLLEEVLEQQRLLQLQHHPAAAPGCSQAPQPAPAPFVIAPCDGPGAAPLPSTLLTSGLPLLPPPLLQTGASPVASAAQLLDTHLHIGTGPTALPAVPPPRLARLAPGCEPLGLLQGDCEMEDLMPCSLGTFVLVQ
# Homo sapiens = organism: Homo sapiens; assay: Inhibition of p70S6K (unknown origin) at 1 uM in presence of ATP relative to control; values are per cent of control
# [8] = target: Serine/threonine-protein kinase MRCK beta (Homo sapiens) (UniProt Q9Y5S2); assay: Inhibition of MRCKbeta (unknown origin) at 1 uM in presence of ATP relative to control; values are per cent of control
# [9] = Cmax in adult patient with recurrent LMNA-NTRK1 rearranged colorectal cancer at 50 mg administered twice a day as powder-in-capsule or liquid formulation for 1 day by LC-MS/MS analysis; type: ADME; settings: human, in vivo, po
# [10] = target: Inhibitor of nuclear factor kappa-B kinase subunit beta (Homo sapiens) (UniProt O14920); assay: Inhibition of IKKbeta (unknown origin) at 1 uM in presence of ATP relative to control; values are per cent of control
# Sequence of Inhibitor of nuclear factor kappa-B kinase subunit beta (Homo sapiens) (O14920 whole entry): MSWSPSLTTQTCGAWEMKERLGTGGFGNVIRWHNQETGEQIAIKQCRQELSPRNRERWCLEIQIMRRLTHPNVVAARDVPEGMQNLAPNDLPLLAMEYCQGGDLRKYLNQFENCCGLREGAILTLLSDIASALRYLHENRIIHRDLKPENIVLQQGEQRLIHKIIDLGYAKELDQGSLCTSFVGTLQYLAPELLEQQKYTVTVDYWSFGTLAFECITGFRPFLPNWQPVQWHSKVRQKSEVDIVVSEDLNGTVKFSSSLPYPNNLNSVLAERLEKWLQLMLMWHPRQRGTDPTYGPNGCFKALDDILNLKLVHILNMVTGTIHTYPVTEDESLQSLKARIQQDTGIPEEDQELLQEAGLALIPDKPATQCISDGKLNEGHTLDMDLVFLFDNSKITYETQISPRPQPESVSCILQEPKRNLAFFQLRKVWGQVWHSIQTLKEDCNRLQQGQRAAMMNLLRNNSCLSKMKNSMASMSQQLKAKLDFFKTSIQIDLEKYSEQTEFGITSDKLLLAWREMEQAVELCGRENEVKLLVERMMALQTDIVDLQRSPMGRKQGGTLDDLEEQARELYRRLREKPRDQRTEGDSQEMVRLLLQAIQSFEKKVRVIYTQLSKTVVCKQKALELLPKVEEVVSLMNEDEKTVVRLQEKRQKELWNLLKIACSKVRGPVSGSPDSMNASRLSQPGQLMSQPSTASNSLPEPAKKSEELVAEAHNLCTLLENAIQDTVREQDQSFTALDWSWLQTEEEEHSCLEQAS
# [11] = target: Serine/threonine-protein kinase STK11 (Homo sapiens) (UniProt Q15831); assay: Inhibition of LKB1 (unknown origin) at 1 uM in presence of ATP relative to control; values are per cent of control
# [12] = Inhibition of N-terminal 6His-tagged TRKC G696A mutant (506 to 829 residues) (unknown origin) expressed in Escherichia coli incubated for 60 mins by [gamma-33P]-ATP based TopCount NXT liquid scintillation assay; design: species or system Homo sapiens
# NIH3T3 = assay: Antitumor activity against mouse NIH3T3 cells harboring extracellular domain deleted TRKA implanted in nu/nu NCr mouse assessed as inhibition of tumor growth at 30 to 300 mg/kg, po administered twice daily for 10 days; type: functional, organism-based; settings: dose 30-300 mg/kg, time 10.0 day
# Hs-578T = assay: Inhibition of cell proliferation in human Hs-578T cells upto 10 umol/L incubated for 72 hrs by DAPI staining based analysis; type: functional; settings: dose <= 10.0 µmol/L
# [13] = target: Mitogen-activated protein kinase 8 (Homo sapiens) (UniProt P45983); assay: Inhibition of JNK1alpha1 (unknown origin) at 1 uM in presence of ATP relative to control; values are per cent of control
# [14] = target: Mitogen-activated protein kinase 3 (Homo sapiens) (UniProt P27361); assay: Inhibition of ERK1 (unknown origin) at 1 uM in presence of ATP relative to control; values are per cent of control
# MCF7 = assay: Inhibition of cell proliferation in human MCF7 cells upto 10 umol/L incubated for 72 hrs by DAPI staining based analysis; type: functional; settings: dose <= 10.0 µmol/L
# [15] = target: Ephrin type-A receptor 4 (Homo sapiens) (UniProt P54764); assay: Inhibition of EphA4 (unknown origin) at 1 uM in presence of ATP relative to control; values are per cent of control
# Sequence of Ephrin type-A receptor 4 (Homo sapiens) (P54764 whole entry): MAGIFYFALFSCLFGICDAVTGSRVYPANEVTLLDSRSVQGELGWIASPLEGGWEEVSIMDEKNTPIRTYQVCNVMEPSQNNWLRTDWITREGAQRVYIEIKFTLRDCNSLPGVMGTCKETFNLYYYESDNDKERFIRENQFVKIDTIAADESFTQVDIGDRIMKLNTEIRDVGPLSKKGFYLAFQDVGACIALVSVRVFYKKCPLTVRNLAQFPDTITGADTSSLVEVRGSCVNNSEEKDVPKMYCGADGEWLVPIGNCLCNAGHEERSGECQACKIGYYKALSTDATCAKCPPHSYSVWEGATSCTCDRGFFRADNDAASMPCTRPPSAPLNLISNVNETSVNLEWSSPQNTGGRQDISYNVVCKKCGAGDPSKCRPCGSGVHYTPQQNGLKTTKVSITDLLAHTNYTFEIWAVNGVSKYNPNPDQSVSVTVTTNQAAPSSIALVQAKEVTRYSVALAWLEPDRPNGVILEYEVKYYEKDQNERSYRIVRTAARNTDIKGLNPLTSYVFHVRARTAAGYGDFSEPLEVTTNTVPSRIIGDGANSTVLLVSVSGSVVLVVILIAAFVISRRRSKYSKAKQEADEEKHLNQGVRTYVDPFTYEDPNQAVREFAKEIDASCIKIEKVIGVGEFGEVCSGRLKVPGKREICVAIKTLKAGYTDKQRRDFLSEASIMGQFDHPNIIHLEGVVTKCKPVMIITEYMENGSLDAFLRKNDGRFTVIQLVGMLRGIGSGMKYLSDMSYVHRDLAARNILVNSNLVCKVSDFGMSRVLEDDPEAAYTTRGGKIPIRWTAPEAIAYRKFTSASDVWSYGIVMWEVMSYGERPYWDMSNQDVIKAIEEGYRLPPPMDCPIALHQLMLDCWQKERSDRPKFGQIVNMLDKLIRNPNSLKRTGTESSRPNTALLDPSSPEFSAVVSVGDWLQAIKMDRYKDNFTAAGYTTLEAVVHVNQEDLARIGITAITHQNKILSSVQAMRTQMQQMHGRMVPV
# [16] = target: Dual specificity mitogen-activated protein kinase kinase 7 (Homo sapiens) (UniProt O14733); assay: Inhibition of MKK7 (unknown origin) at 1 uM in presence of ATP relative to control; values are per cent of control
# Sequence of Dual specificity mitogen-activated protein kinase kinase 7 (Homo sapiens) (O14733 whole entry): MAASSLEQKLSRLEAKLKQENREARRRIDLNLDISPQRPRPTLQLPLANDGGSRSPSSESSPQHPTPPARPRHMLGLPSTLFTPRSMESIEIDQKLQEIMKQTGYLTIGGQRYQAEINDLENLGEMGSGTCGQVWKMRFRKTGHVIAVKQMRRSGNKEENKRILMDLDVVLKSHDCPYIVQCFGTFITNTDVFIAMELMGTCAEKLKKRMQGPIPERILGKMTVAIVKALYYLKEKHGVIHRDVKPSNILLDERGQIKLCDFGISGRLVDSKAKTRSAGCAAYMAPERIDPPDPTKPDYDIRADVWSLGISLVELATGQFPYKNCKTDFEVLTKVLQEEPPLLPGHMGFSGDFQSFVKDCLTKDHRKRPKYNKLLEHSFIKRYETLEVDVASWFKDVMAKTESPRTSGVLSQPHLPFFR
# [17] = target: Muscle, skeletal receptor tyrosine-protein kinase (Homo sapiens) (UniProt O15146); assay: Inhibition of MUSK (unknown origin) at 1 uM in presence of ATP relative to control; values are per cent of control
# [18] = target: Serine/threonine-protein kinase Chk2 (Homo sapiens) (UniProt O96017); assay: Inhibition of CHK2 (unknown origin) at 1 uM in presence of ATP relative to control; values are per cent of control
# [19] = target: Casein kinase I isoform gamma-2 (Homo sapiens) (UniProt P78368); assay: Inhibition of CK1gamma2 (unknown origin) at 1 uM in presence of ATP relative to control; values are per cent of control
# [20] = target: Receptor-interacting serine/threonine-protein kinase 2 (Homo sapiens) (UniProt O43353); assay: Inhibition of RIPK2 (unknown origin) at 1 uM in presence of ATP relative to control; values are per cent of control
# Sequence of Receptor-interacting serine/threonine-protein kinase 2 (Homo sapiens) (O43353 whole entry): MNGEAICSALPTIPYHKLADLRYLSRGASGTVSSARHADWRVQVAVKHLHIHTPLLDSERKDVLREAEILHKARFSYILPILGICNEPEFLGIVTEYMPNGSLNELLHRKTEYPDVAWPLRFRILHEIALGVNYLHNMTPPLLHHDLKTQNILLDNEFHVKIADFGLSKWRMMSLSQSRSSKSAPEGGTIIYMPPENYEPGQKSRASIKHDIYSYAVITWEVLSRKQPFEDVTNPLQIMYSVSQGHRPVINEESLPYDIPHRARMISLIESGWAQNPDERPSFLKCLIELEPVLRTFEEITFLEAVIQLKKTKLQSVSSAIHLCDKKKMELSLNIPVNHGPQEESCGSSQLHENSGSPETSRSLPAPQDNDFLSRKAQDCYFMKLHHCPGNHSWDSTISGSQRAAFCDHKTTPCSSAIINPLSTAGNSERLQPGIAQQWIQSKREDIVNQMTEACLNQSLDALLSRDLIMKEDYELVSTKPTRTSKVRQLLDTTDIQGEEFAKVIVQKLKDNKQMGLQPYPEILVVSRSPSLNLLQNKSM
# [21] = target: Protein kinase C iota type (Homo sapiens) (UniProt P41743); assay: Inhibition of PKCiota (unknown origin) at 1 uM in presence of ATP relative to control; values are per cent of control
# [22] = Cmax in pediatric patient with recurrent ETV6-NTRK3-rearranged infantile fibrosarcoma at 100 mg administered twice a day as liquid formulation for 29 day by LC-MS/MS analysis; type: ADME; settings: human, in vivo
# [23] = target: Protein kinase C beta type (Homo sapiens) (UniProt P05771); assay: Inhibition of PKCbetall (unknown origin) at 1 uM in presence of ATP relative to control; values are per cent of control
compound,measurement,setting,value
C[C@@H]1CCc2ncc(F)cc2[C@H]2CCCN2c2ccn3ncc(c3n2)C(=O)N1 [SELITRECTINIB],residual activity,[1],96.5%
same,concentration at 204 h,[2],< 1 ng/mL
same,residual activity,[3],101%
same,residual activity,[4],103%
same,inhibition,NCI-H292,inactive
same,residual activity,[5],95.5%
same,residual activity,[6],106%
same,residual activity,[7],107%
same,residual activity,Homo sapiens,117%
same,residual activity,[8],128%
same,Cmax,[9],350 ng/mL
same,residual activity,[10],119%
same,residual activity,[11],108%
same,IC50,[12],< 2.5 nM
same,Activity,NIH3T3,Active
same,inhibition,Hs-578T,inactive
same,residual activity,[13],106%
same,residual activity,[14],111%
same,inhibition,MCF7,inactive
same,residual activity,[15],102%
same,residual activity,[16],115%
same,residual activity,[17],89.5%
same,residual activity,[18],99.5%
same,residual activity,[19],112%
same,residual activity,[20],100%
same,residual activity,[21],100%
same,Cmax,[22],776 ng/mL
same,residual activity,[23],90.5%
